In ChEMBL document CHEMBL4387741, “Optimization of novel reversible Bruton's tyrosine kinase inhibitors identified using Tethering-fragment-based screens” (Bioorg Med Chem, 2019):

target: Tyrosine-protein kinase BTK (Homo sapiens, UniProt Q06187); assay: biochemical
Sequence (Q06187 whole entry): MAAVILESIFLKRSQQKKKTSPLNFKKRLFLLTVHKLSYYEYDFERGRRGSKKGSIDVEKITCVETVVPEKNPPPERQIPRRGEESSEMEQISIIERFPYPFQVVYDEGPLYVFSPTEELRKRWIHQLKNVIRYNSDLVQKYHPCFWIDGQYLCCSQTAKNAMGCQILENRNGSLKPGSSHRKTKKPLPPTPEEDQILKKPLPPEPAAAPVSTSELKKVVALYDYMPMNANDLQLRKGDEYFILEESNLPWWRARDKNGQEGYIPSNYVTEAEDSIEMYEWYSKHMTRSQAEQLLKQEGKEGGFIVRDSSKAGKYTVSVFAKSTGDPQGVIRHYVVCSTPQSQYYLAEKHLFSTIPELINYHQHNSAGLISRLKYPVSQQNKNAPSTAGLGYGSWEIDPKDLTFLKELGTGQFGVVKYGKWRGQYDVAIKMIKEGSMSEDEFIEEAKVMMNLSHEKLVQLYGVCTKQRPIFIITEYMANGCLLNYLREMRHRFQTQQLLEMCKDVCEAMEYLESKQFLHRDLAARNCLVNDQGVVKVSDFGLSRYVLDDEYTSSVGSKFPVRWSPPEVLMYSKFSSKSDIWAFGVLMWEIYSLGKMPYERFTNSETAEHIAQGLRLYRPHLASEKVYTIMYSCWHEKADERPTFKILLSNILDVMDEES
Description: Reversible inhibition of recombinant full-length N-terminal 6-His-tagged human BTK expressed in baculovirus infected Sf21 insect cells using fluorescent-labeled polyGAT peptide as substrate incubated for 30 mins by TR-FRET assay

Row | SMILES | IC50
1 | O=C(Nc1ccc(F)cc1)Nc1cccc(C2CCCN(c3ncnc4[nH]ccc34)C2)c1 (stereo unspecified) | 1.3 µM
2 | O=C(Nc1cccc(C2CCCN(c3ncnc4[nH]ccc34)C2)c1)Nc1ccccc1C(F)(F)F (stereo unspecified) | 0.46 µM
3 | O=C(Cc1ccccc1)Nc1cccc(C2CCCN(c3ncnc4[nH]ccc34)C2)c1 (stereo unspecified) | 45 µM
4 | O=C(Nc1ccccc1)Nc1cccc(CCNc2ncnc3[nH]ccc23)c1 | 8.3 µM
5 | CC(C)(C)c1ccccc1NC(=O)Nc1cccc(C2CCCN(c3ncnc4[nH]ccc34)C2)c1 (racemic) | 0.14 µM
6 | O=C(Nc1ccc(Cl)cc1)Nc1cccc(C2CCCN(c3ncnc4[nH]ccc34)C2)c1 (stereo unspecified) | 2.3 µM
7 | O=C(Nc1cccc(C2CCCN(c3ncnc4[nH]ccc34)C2)c1)Nc1ccccn1 (stereo unspecified) | 2.7 µM
8 | O=C(Nc1cccc(F)c1)Nc1cccc(C2CCCN(c3ncnc4[nH]ccc34)C2)c1 (stereo unspecified) | 1.2 µM
9 | O=C(Nc1cccc(Cl)c1)Nc1cccc(C2CCCN(c3ncnc4[nH]ccc34)C2)c1 (stereo unspecified) | 1.8 µM
10 | O=C(NCCCCCCNc1ncnc2[nH]ccc12)Nc1ccccc1 | 11 µM
11 | O=C(Nc1cccnc1)Nc1cccc(C2CCCN(c3ncnc4[nH]ccc34)C2)c1 (stereo unspecified) | 3.2 µM
12 | O=C(Nc1cccc(C2CCCN(c3ncnc4[nH]ccc34)C2)c1)Nc1ccccc1C1CCCC1 (racemic) | 0.1 µM
13 | O=c1c(Nc2ccccc2)c(Nc2cccc(C3CCCN(c4ncnc5[nH]ccc45)C3)c2)c1=O (stereo unspecified) | 44 µM
14 | O=C(Nc1ccncc1)Nc1cccc(C2CCCN(c3ncnc4[nH]ccc34)C2)c1 (stereo unspecified) | > 10 µM
15 | O=C(Nc1cccc(C2CCCN(c3ncnc4[nH]ccc34)C2)c1)Nc1ccccc1C1CC1 (racemic) | 0.2 µM
16 | CC(C)(C#N)c1ccccc1NC(=O)Nc1cccc(C2CCCN(c3ncnc4[nH]ccc34)C2)c1 (racemic) | > 10 µM
17 | O=S(=O)(Nc1cccc(C2CCCN(c3ncnc4[nH]ccc34)C2)c1)c1ccccc1 (stereo unspecified) | 19 µM
18 | O=C(NCCC#CCCNc1ncnc2[nH]ccc12)Nc1ccccc1 | 19 µM
19 | c1cc(Nc2nc3ccccc3[nH]2)cc(C2CCCN(c3ncnc4[nH]ccc34)C2)c1 (stereo unspecified) | 4.1 µM
20 | N#C/N=C(\Nc1ccccc1)Nc1cccc(C2CCCN(c3ncnc4[nH]ccc34)C2)c1 (stereo unspecified) | 68 µM
21 | O=C(NCCCC1CCCN(c2ncnc3[nH]ccc23)C1)Nc1ccccc1 (racemic) | 2 µM
22 | O=C(Nc1cccc(C2CCCN(c3ncnc4[nH]ccc34)C2)c1)Nc1ccccc1F (stereo unspecified) | 0.5 µM
23 | O=C(NCCCCCNc1ncnc2[nH]ccc12)Nc1ccccc1 | 16 µM
24 | O=C(NCCc1cccc(Nc2ncnc3[nH]ccc23)c1)Nc1ccccc1 | 12 µM
25 | O=C(Nc1cccc(C2CCCN(c3ncnc4[nH]ccc34)C2)c1)c1ccccc1 (stereo unspecified) | 4.9 µM
26 | O=C(Nc1cccc(C2CCCN(c3ncnc4[nH]ccc34)C2)c1)Nc1ccccc1N1CCCCC1 (racemic) | 0.55 µM
